The first test concerns HEK293. The experiment in a line: Induction of VHL-mediated SGK3 degradation in HEK293 cells at 10 uM incubated for 48 hrs by immunoblot analysis relative to control. It is filed as cell-based. The conditions noted are these: Homo sapiens.
Chain of Protein cereblon/Tyrosine-protein kinase ABL1/Breakpoint cluster region protein (Homo sapiens) (P00519 whole entry, looked up): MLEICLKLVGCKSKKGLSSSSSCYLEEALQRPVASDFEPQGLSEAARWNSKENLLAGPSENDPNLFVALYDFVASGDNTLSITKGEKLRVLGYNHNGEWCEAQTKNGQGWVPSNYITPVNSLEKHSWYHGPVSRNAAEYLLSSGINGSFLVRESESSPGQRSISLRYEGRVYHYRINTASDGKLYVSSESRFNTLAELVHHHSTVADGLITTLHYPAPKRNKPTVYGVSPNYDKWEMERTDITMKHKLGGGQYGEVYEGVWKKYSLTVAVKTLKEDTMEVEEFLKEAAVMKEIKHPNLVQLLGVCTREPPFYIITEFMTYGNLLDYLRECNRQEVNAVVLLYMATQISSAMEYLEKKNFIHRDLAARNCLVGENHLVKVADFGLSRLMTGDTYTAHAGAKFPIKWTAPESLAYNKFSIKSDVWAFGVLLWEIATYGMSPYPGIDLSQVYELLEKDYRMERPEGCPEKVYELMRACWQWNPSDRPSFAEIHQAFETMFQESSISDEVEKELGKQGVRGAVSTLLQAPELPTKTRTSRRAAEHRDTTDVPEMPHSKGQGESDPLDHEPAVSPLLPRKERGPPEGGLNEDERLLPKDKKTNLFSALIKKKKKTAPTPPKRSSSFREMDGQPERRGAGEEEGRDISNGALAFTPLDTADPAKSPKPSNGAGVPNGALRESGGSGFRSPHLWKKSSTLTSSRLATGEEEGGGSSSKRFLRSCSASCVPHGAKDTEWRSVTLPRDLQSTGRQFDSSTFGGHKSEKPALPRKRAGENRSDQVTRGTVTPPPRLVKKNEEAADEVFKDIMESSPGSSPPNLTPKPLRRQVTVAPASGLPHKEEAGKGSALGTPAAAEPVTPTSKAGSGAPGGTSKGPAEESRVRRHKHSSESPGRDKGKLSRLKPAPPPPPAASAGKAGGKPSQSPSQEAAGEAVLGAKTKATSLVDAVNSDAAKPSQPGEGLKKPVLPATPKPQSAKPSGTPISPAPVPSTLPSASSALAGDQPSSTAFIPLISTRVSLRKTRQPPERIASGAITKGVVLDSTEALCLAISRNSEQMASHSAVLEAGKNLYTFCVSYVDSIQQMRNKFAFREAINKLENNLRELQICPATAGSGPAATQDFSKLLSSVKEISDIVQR
Chain of Protein cereblon/Tyrosine-protein kinase ABL1/Breakpoint cluster region protein (Homo sapiens) (P11274 whole entry, looked up): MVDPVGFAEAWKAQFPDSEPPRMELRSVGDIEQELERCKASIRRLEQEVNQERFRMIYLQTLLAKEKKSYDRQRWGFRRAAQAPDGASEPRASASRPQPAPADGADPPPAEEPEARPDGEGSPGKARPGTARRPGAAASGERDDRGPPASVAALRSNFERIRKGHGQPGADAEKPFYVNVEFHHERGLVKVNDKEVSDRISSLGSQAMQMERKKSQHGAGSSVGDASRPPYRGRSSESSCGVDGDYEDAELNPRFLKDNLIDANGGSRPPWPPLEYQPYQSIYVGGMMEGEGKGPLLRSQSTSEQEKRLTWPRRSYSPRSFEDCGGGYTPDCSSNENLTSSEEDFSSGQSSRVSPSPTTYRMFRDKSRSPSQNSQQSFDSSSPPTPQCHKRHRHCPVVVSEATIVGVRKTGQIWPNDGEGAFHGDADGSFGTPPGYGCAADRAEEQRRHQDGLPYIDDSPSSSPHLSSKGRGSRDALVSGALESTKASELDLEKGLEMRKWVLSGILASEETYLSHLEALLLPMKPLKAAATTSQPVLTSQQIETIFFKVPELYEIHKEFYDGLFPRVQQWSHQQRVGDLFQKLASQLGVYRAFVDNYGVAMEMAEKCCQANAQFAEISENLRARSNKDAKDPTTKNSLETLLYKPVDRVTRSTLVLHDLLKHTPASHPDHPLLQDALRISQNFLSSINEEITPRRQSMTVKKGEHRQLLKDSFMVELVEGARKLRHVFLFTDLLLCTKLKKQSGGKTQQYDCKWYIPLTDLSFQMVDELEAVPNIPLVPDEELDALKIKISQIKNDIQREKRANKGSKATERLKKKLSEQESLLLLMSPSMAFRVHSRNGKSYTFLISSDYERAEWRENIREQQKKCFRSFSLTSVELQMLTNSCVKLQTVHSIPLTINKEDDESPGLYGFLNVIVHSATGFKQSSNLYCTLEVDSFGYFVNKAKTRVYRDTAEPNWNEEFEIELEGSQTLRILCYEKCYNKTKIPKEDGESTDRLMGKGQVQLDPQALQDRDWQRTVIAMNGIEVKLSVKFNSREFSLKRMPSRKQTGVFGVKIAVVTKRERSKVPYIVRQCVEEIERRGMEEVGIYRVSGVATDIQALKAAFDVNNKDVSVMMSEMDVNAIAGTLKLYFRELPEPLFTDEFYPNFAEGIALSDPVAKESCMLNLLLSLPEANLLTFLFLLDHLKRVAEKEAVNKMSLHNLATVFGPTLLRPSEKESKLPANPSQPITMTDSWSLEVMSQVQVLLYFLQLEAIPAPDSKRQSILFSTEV
Chain of Protein cereblon/Tyrosine-protein kinase ABL1/Breakpoint cluster region protein (Homo sapiens) (Q96SW2 whole entry, looked up): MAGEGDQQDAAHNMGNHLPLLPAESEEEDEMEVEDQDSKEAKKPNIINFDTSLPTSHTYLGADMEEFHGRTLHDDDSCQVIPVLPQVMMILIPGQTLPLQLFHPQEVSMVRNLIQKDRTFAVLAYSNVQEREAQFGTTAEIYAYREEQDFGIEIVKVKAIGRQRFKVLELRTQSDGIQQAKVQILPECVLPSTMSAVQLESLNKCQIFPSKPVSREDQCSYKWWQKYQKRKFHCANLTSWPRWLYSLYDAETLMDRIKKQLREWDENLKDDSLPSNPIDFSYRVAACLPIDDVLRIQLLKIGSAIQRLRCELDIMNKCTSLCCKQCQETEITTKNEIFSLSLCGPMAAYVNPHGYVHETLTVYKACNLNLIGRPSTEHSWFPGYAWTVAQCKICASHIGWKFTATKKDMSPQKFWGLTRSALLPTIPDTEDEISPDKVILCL
On to `Cc1ccc(F)c(S(=O)(=O)Nc2ccc(-c3nc(OC[C@H]4CN(CCOCCOCC(=O)N[C@H](C(=O)N5C[C@H](O)C[C@H]5C(=O)NCc5ccc(-c6scnc6C)cc5)C(C)(C)C)CCO4)c4cn[nH]c4n3)cc2)c1`, for which the Activity was above 50%.

In turn, `Cc1ccc(F)c(S(=O)(=O)Nc2ccc(-c3nc(OC[C@H]4CN(CCCCCCOCCOCCOCC(=O)N[C@H](C(=O)N5C[C@H](O)C[C@H]5C(=O)NCc5ccc(-c6scnc6C)cc5)C(C)(C)C)CCO4)c4cn[nH]c4n3)cc2)c1` displayed an Activity above 50%.

As for `Cc1ccc(F)c(S(=O)(=O)Nc2ccc(-c3nc(OC[C@H]4CN(CCOCCOCCOCC(=O)N[C@H](C(=O)N5C[C@H](O)C[C@H]5C(=O)NCc5ccc(-c6scnc6C)cc5)C(C)(C)C)CCO4)c4cn[nH]c4n3)cc2)c1`, the Activity is above 50%.

Regarding `Cc1ccc(F)c(S(=O)(=O)Nc2ccc(-c3nc(OC[C@H]4CN(CCOCCOCCOCCOCCOCC(=O)N[C@H](C(=O)N5C[C@H](O)C[C@H]5C(=O)NCc5ccc(-c6scnc6C)cc5)C(C)(C)C)CCO4)c4cn[nH]c4n3)cc2)c1`, the Activity is above 50%.

For `Cc1ccc(F)c(S(=O)(=O)Nc2ccc(-c3nc(OC[C@H]4CN(CCOCCOCCOCCOCC(=O)N[C@H](C(=O)N5C[C@H](O)C[C@H]5C(=O)NCc5ccc(-c6scnc6C)cc5)C(C)(C)C)CCO4)c4cn[nH]c4n3)cc2)c1`, the Activity was above 50%.

Consider `COc1ccc(Cl)c(S(=O)(=O)Nc2ccc(-c3nc(OC[C@H]4CN(CCCCCCOCCCCCCOCC(=O)N[C@H](C(=O)N5C[C@H](O)C[C@H]5C(=O)NCc5ccc(-c6scnc6C)cc5)C(C)(C)C)CCO4)c4c(C)n[nH]c4n3)cc2)c1`, for which the Activity was above 50%.

In turn, `Cc1ccc(F)c(S(=O)(=O)Nc2ccc(-c3nc(OC[C@H]4CN(CCCCCCOCCCCCCOCC(=O)N[C@H](C(=O)N5C[C@H](O)C[C@H]5C(=O)NCc5ccc(-c6scnc6C)cc5)C(C)(C)C)CCO4)c4cn[nH]c4n3)cc2)c1` gave an Activity above 50%.

The molecule `COc1ccc(Cl)c(S(=O)(=O)Nc2ccc(-c3nc(OC[C@H]4CN(CCCCCCOCCOCCOCCOCC(=O)N[C@H](C(=O)N5C[C@H](O)C[C@H]5C(=O)NCc5ccc(-c6scnc6C)cc5)C(C)(C)C)CCO4)c4c(C)n[nH]c4n3)cc2)c1` came in with an Activity above 50%.

`Cc1ccc(F)c(S(=O)(=O)Nc2ccc(-c3nc(OC[C@H]4CN(CCCCCCOCCOCCOCCOCC(=O)N[C@H](C(=O)N5C[C@H](O)C[C@H]5C(=O)NCc5ccc(-c6scnc6C)cc5)C(C)(C)C)CCO4)c4cn[nH]c4n3)cc2)c1` had an Activity above 50%.

Another test concerns the target Protein cereblon/Tyrosine-protein kinase ABL1/Breakpoint cluster region protein (Homo sapiens) (UniProt P00519+P11274+Q96SW2). The experiment in a line: Induction of CRBN-mediated BCR-ABL degradation in human K562 cells at 1 uM incubated for 24 hrs by Western blot analysis relative to control. It is filed as cell-based.
Conditions: not given
(In general: A western blot detects proteins with antibodies after separation by electrophoresis.)
Consider `Cc1nc(Nc2ncc(C(=O)Nc3c(C)cccc3Cl)s2)cc(N2CCN(CCCCCCOCCOCCOCCCCCC(=O)Nc3cccc4c3C(=O)N(C3CCC(=O)NC3=O)C4=O)CC2)n1` (stereo not given), for which the Activity was above 60%.

(Values after ChEMBL document CHEMBL4765444, “Chimera induced protein degradation: PROTACs and beyond” (Eur J Med Chem, 2020).)
